Laboratory results taken from patent US20180282819A1, “Targeting the Histone Pathway to Detect and Overcome Anthracyclin Resistance” (ONTARIO INSTITUTE FOR CANCER RESEARCH (OICR), priority 2015, published 2018).

What was measured:
Type in all cases: cell-based, human
MCF7 30 nM-R = assay: Apoptosis, Annexin V flow cytometry; details: 72 h
Method: (§1) For cell cycle, cells were synchronized by the double-thymidine block (Whitfield et al. 2000) and incubated with DMSO or epirubicin doses established for each cell line: 25 nM for MDA-MB-231, 30 nM for MCF7, 15 nM for SKBR3, 10 nM for ZR-75-1. Cells were collected at 48 h, fixed with 80% ethanol and incubated with 2 mg/ml RNase A and 0.1 mg/ml propidium iodide (both from Sigma, Oakville, Canada) prior to analysis. For apoptosis experiments, cells were treated with DMSO or epirubicin at concentrations described above, and collected at 72 h for staining with Annexin V apoptosis-detection eFluor450 (eBioscience, San Diego, USA). Data were collected by FACSCanto II and FACSDiva (BD Biosciences, Mississauga, Canada) and analyzed by FlowJo (Treestar, Ashland, USA).
(§2) To assess the effects of epirubicin on apoptosis, apoptotic cells were scored by flow cytometry after 72 h of exposure to epirubicin. The apoptotic index was consistently lower for resistant cells compared to native controls (Table 1). In particular, MDA-MB-231 and SKBR3 resistant cells required a substantially higher concentration of epirubicin (1000 nM) to induce apoptosis; even at this concentration of epirubicin, the apoptotic index was still nearly 50% lower compared to the native cells (Table 1).

ZR-75-1 Native [1] = assay: Apoptosis, Annexin V flow cytometry; details: 72 h
Method: as §1, §2

SKBR3 15 nM-R = assay: Apoptosis, Annexin V flow cytometry; details: 72 h
Method: as §1, §2

MDA-MB-231 25 nM-R = assay: Apoptosis, Annexin V flow cytometry; details: 72 h
Method: as §1, §2

ZR-75-1 10 nM-R = assay: Apoptosis, Annexin V flow cytometry; details: 72 h
Method: as §1, §2

SKBR3 Native [2] = assay: Apoptosis, Annexin V flow cytometry; details: 72 h
Method: as §1, §2

MCF7 Native [3] = assay: Apoptosis, Annexin V flow cytometry; details: 72 h
Method: as §1, §2

MDA-MB-231 Native [4] = assay: Apoptosis, Annexin V flow cytometry; details: 72 h
Method: as §1, §2

[5] = test system: MDA-MB-231 resistant cells; assay: Cell cycle, PI flow cytometry after double-thymidine block; details: 25 nM epirubicin, 48 h
Method: (§3) (A-D) Cells were synchronized by a double-thymidine block and treated with DMSO or epirubicin at selection doses established for each resistant cell line: 25 nM epirubicin to MDA-MB-231, 30 nM epirubicin to MCF7, 15 nM epirubicin to SKBR3 and […]. Epirubicin concentration was increased to 100 nM for MCF7 and SKBR3 cells since G2/M block was not observed at the lower doses of epirubicin. Cells were collected at 48 h, stained by PI and analyzed by flow cytometry. Debris was gated out.
as §1
(§4) Cells were synchronized prior to exposure to DMSO or epirubicin. […] Therefore, overcoming a G2/M block may be part of the process leading to epirubicin resistance.

[6] = test system: SKBR3 epirubicin-resistant cells; assay: as above; details: 100 nM epirubicin, 48 h
Method: as §3, §1, §4

MCF7 native cells = assay: as above; details: 100 nM epirubicin, 48 h
Method: as §3, §1, §4

ZR-75-1 resistant cells = assay: as above; details: 10 nM epirubicin, 48 h
Method: as §3, §1, §4

SKBR3 native cells = assay: as above; details: 100 nM epirubicin, 48 h
Method: as §3, §1, §4

ZR-75-1 native cells = assay: as above; details: 10 nM epirubicin, 48 h
Method: as §3, §1, §4

[7] = test system: MCF7 epirubicin-resistant cells; assay: as above; details: 100 nM epirubicin, 48 h
Method: as §3, §1, §4

MDA-MB-231 native cells = assay: as above; details: 25 nM epirubicin, 48 h
Method: as §3, §1, §4

ZR-75-1 Native [8] = assay: Proliferation, cell-doubling time
Method: (§5) Cells were cultured in the presence or absence of epirubicin for up to 96 h (see Flow Cytometry for epirubicin concentrations). Cells were collected at 24, 48, 72 and 96 hours and counted by ViCell (Beckman Coulter, Mississauga, Canada). Data were analyzed in GraphPad Prism5 software.
(§6) To determine cell-doubling time, the investigators cultured cells with or without epirubicin for up to 96 h. In the absence of epirubicin, the native MDA-MB-231 and MCF7 cell populations doubled every 25 h and 29 h, respectively (Table 2), whereas native SKBR3 and ZR-75-1 cells grew more slowly, doubling every 45 h and 50 h, respectively. In the presence of epirubicin, doubling time increased 2.8-fold for the MDA-MB-231 (p=0.0371), 2.5-fold for MCF7 (ns), 1.3-fold for SKBR3 (p=0.0494) and 1.9-fold for ZR-75-1 (p=0.0258) for native cells. In contrast to the native cell lines, there were no marked changes in the doubling time of the resistant cells, regardless of whether epirubicin was added (Table 2).

ZR-75-1 10 nM-Resistant = assay: Proliferation, cell-doubling time; details: +10 nM epirubicin
Method: as §5, §6

SKBR3 Native [9] = assay: Proliferation, cell-doubling time
Method: as §5, §6

SKBR3 15 nM-Resistant = assay: Proliferation, cell-doubling time; details: +15 nM epirubicin
Method: as §5, §6

MCF7 30 nM-Resistant = assay: Proliferation, cell-doubling time; details: +30 nM epirubicin
Method: as §5, §6

MCF7 Native [10] = assay: Proliferation, cell-doubling time
Method: as §5, §6

[11] = test system: MDA-MB-231 25 nM-Resistant; assay: Proliferation, cell-doubling time; details: +25 nM epirubicin
Method: as §5, §6

MDA-MB-231 Native [12] = assay: Proliferation, cell-doubling time
Method: as §5, §6

In the case of COc1cccc2c1C(=O)c1c(O)c3c(c(O)c1C2=O)C[C@@](O)(C(=O)CO)C[C@@H]3O[C@H]1C[C@H](N)[C@@H](O)[C@H](C)O1 [epirubicin], the “Percentages of apoptotic cells” value (MCF7 30 nM-R; 1 nM epirubicin) is reported as 24%, the “Percentages of apoptotic cells” value (MCF7 30 nM-R; 30 nM epirubicin) is reported as 23% and the “Percentages of apoptotic cells” value (MCF7 30 nM-R; 1000 nM epirubicin) is reported as 78%. For the same molecule, the “Percentages of apoptotic cells” value (ZR-75-1 Native [1]; 1 nM epirubicin) was 44%, the “Percentages of apoptotic cells” value (ZR-75-1 Native [1]; 10 nM epirubicin) was 47% and the “Percentages of apoptotic cells” value (ZR-75-1 Native [1]; 1000 nM epirubicin) was 71%. For the same molecule, the “Percentages of apoptotic cells” value (SKBR3 15 nM-R; 1 nM epirubicin) was 17%, the “Percentages of apoptotic cells” value (SKBR3 15 nM-R; 15 nM epirubicin) was 17% and the “Percentages of apoptotic cells” value (SKBR3 15 nM-R; 1000 nM epirubicin) was 34%. For the same molecule, the “Percentages of apoptotic cells” value (MDA-MB-231 25 nM-R; 1 nM epirubicin) was 10%, the “Percentages of apoptotic cells” value (MDA-MB-231 25 nM-R; 25 nM epirubicin) was 8% and the “Percentages of apoptotic cells” value (MDA-MB-231 25 nM-R; 1000 nM epirubicin) was 50%. For the same molecule, the “Percentages of apoptotic cells” value (ZR-75-1 10 nM-R; 1 nM epirubicin) was 28%, the “Percentages of apoptotic cells” value (ZR-75-1 10 nM-R; 10 nM epirubicin) was 29% and the “Percentages of apoptotic cells” value (ZR-75-1 10 nM-R; 1000 nM epirubicin) was 62%. For the same molecule, the “Percentages of apoptotic cells” value (SKBR3 Native [2]; 1 nM epirubicin) was 26%, the “Percentages of apoptotic cells” value (SKBR3 Native [2]; 15 nM epirubicin) was 24% and the “Percentages of apoptotic cells” value (SKBR3 Native [2]; 1000 nM epirubicin) was 59%. The “Percentages of apoptotic cells” value (MCF7 Native [3]; 1 nM epirubicin) was 29%, the “Percentages of apoptotic cells” value (MCF7 Native [3]; 30 nM epirubicin) was 49% and the “Percentages of apoptotic cells” value (MCF7 Native [3]; 1000 nM epirubicin) was 77%. The “Percentages of apoptotic cells” value (MDA-MB-231 Native [4]; 1 nM epirubicin) was 17%, the “Percentages of apoptotic cells” value (MDA-MB-231 Native [4]; 25 nM epirubicin) was 41% and the “Percentages of apoptotic cells” value (MDA-MB-231 Native [4]; 1000 nM epirubicin) was 94%. For the same molecule, the “effect on cell cycle” value [5] was “progressed through”, the “effect on cell cycle” value [6] was “minimal effect” and the “effect on cell cycle” value (MCF7 native cells) was “arrested in G2/M phase”. For the same molecule, the “effect on cell cycle” value (ZR-75-1 resistant cells) was “progressed through”, the “effect on cell cycle” value (SKBR3 native cells) was “arrested in G2/M phase” and the “effect on cell cycle” value (ZR-75-1 native cells) was “arrested in G2/M phase”. The “effect on cell cycle” value [7] was “minimal effect”, the “effect on cell cycle” value (MDA-MB-231 native cells) was “arrested in G2/M phase” and the Doubling times (ZR-75-1 Native [8]; ZR-75-1 Native, +10 nM epirubicin) was 95 h. The “increase of doubling time in the presence of epirubicin” value (from here on “increase of doubling time”) (ZR-75-1 Native [8]; ZR-75-1 native cells, p=0.0258) was 1.9 fold, the Doubling times (ZR-75-1 10 nM-Resistant) was 67 h and the Doubling times (SKBR3 Native [9]; SKBR3 Native, +15 nM epirubicin) was 57 h. For the same molecule, the “increase of doubling time” value (SKBR3 Native [9]; SKBR3 native cells, p=0.0494) was 1.3 fold, the Doubling times (SKBR3 15 nM-Resistant) was 66 h and the Doubling times (MCF7 30 nM-Resistant) was 37 h. For the same molecule, the Doubling times (MCF7 Native [10]; MCF7 Native, +30 nM epirubicin) was 74 h, the “increase of doubling time” value (MCF7 Native [10]; MCF7 native cells, ns) was 2.5 fold and the Doubling times [11] was 43 h. For the same molecule, the Doubling times (MDA-MB-231 Native [12]; MDA-MB-231 Native, +25 nM epirubicin) was 70 h and the “increase of doubling time” value (MDA-MB-231 Native [12]; MDA-MB-231 native cells, p=0.0371) was 2.8 fold.
